Assay: xn = mol fraction of the nth substance listed
Conditions: 101 kPa

CO + CCCCCCCCn1cc[n+](C)c1.[Cl-]
x1 = 1
Conditions	speed of sound [m/s]	viscosity [mPa·s]
298.15 K	1103	0.543
328.15 K	1008	0.369

CCCCCCCCn1cc[n+](C)c1.[Cl-] + CCCO
Conditions	speed of sound, 298.15 K [m/s]	speed of sound, 313.15 K [m/s]	speed of sound, 328.15 K [m/s]	viscosity, 298.15 K [mPa·s]	viscosity, 313.15 K [mPa·s]	viscosity, 328.15 K [mPa·s]
x2 = 0	–	1624	–	–	4100	–
x2 = 0.1071	1659	1584	–	7200	1720	–
x2 = 0.2407	1593	1539	–	2056	650	–
x2 = 0.3036	1566	1517	–	910	334	–
x2 = 0.407	1531	–	1445	386	–	77.4
x2 = 0.4887	1504	1461	1421	179	84.1	42.7
x2 = 0.6209	1456	1414	–	50.81	28.81	–
x2 = 0.7248	–	1369	–	–	12.22	–
x2 = 0.8516	1342	1296	1250	6.34	4.4	3.189
x2 = 0.9024	–	1257	1211	–	3.23	2.352
x2 = 0.94	1271	1223	–	3.238	2.293	–
x2 = 0.9729	1238	1188	–	2.648	1.878	–

CCCCCCCCn1cc[n+](C)c1.[Cl-] + CCO
Conditions	speed of sound, 298.15 K [m/s]	speed of sound, 313.15 K [m/s]	speed of sound, 328.15 K [m/s]	viscosity, 298.15 K [mPa·s]	viscosity, 313.15 K [mPa·s]	viscosity, 328.15 K [mPa·s]
x2 = 0	1721	1624	1560	21000	4100	1091
x2 = 0.0449	–	1606	–	–	2717	–
x2 = 0.1305	–	1578	1527	–	1411	481
x2 = 0.2969	1579	1530	1487	1127	394	165
x2 = 0.4753	1518	1477	1438	186	88	45.2
x2 = 0.6858	1437	–	–	21.26	–	–
x2 = 0.8809	1304	1258	–	3.5	2.601	–
x2 = 0.917	1264	1218	1175	2.551	1.919	1.488
x2 = 0.955	1215	1169	1122	1.754	1.341	1.038
x2 = 0.9794	1179	–	–	1.396	–	–

CCO + CCCCCCCCn1cc[n+](C)c1.[Cl-]
x1 = 1
Conditions	speed of sound [m/s]	viscosity [mPa·s]
298.15 K	1143	1.085
313.15 K	1093	0.826
328.15 K	1043	0.641

CCCO + CCCCCCCCn1cc[n+](C)c1.[Cl-]
x1 = 1
Conditions	speed of sound [m/s]	viscosity [mPa·s]
298.15 K	1205	1.951
313.15 K	1155	1.383
328.15 K	1105	1.007

CCCCCCCCn1cc[n+](C)c1.[Cl-] + CO
Conditions	speed of sound, 298.15 K [m/s]	speed of sound, 313.15 K [m/s]	speed of sound, 328.15 K [m/s]	viscosity, 298.15 K [mPa·s]	viscosity, 313.15 K [mPa·s]	viscosity, 328.15 K [mPa·s]
x1 = 0.0197	–	1110	1070	–	0.594	0.497
x2 = 0	1721	1624	1560	21000	4100	1091
x2 = 0.0565	1683	1602	1548	10400	2450	760
x2 = 0.1686	1638	1578	1531	3500	1002	365
x2 = 0.2638	1608	1558	1514	1489	500	205
x2 = 0.3525	–	1536	1496	–	212	99
x2 = 0.4395	–	1518	–	–	106.7	–
x2 = 0.5589	–	–	1447	–	–	21.44
x2 = 0.7536	1447	1406	1365	8.43	5.82	4.39
x2 = 0.8231	1397	–	–	4.19	–	–
x2 = 0.8713	–	1304	1263	–	1.854	1.491
x2 = 0.8813	–	1292	1250	–	1.722	1.388
x2 = 0.9236	1274	1229	1186	1.416	1.133	0.93
x2 = 0.9436	1237	1192	1147	1.135	0.914	0.754

— a compilation of properties of binary mixtures (doi:10.1021/je060123k)
